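Assay format: 96-well plates, 48-hour exposure. TGI is the concentration that stops growth completely.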
Tests used:
Experiment in all cases: NCI tumour cell line growth inhibition, 48 h
MDA-N = tested on: MDA-N
T-47D breast = tested on: T-47D breast
HCC-2998 colon = tested on: HCC-2998 colon
SF-295 CNS = tested on: SF-295 CNS
SK-MEL-28 melanoma = tested on: SK-MEL-28 melanoma
786-0 renal = tested on: 786-0 renal
SR leukemia = tested on: SR leukemia
OVCAR-3 ovarian = tested on: OVCAR-3 ovarian
KM12 colon = tested on: KM12 colon
UACC-257 melanoma = tested on: UACC-257 melanoma
U251 CNS = tested on: U251 CNS
HS 578T breast = tested on: HS 578T breast
SK-MEL-5 melanoma = tested on: SK-MEL-5 melanoma
SK-MEL-2 melanoma = tested on: SK-MEL-2 melanoma
CAKI-1 renal = tested on: CAKI-1 renal
UO-31 renal = tested on: UO-31 renal
SNB-19 CNS = tested on: SNB-19 CNS

| Compound | TGI (MDA-N) [µM] | TGI (T-47D breast) [µM] | TGI (HCC-2998 colon) [µM] | TGI (SF-295 CNS) [µM] | TGI (SK-MEL-28 melanoma) [µM] | TGI (786-0 renal) [µM] | TGI (SR leukemia) [µM] | TGI (OVCAR-3 ovarian) [µM] | TGI (KM12 colon) [µM] | TGI (UACC-257 melanoma) [µM] | TGI (U251 CNS) [µM] | TGI (HS 578T breast) [µM] | TGI (SK-MEL-5 melanoma) [µM] | TGI (SK-MEL-2 melanoma) [µM] | TGI (CAKI-1 renal) [µM] | TGI (UO-31 renal) [µM] | TGI (SNB-19 CNS) [µM] |
| --- | --- | --- | --- | --- | --- | --- | --- | --- | --- | --- | --- | --- | --- | --- | --- | --- | --- |
| c1ccc(CN2C3C4N(Cc5ccccc5)C2C2N(Cc5ccccc5)C(C(N2Cc2ccccc2)N4Cc2ccccc2)N3Cc2ccccc2)cc1 | > 100 | > 100 | > 100 | > 100 | > 100 | > 100 | > 100 | > 100 | > 100 | > 100 | > 100 | > 100 | > 100 | > 100 | > 100 | – | – |
| O=c1nc(N2CCCCC2)sc2[nH]c3ccccc3c12 | > 100 | > 100 | – | > 100 | > 100 | > 100 | > 100 | > 100 | > 100 | > 100 | > 100 | > 100 | > 100 | > 100 | > 100 | 54.9 | > 100 |
| C=C1C(=O)O[C@H]2C(=O)[C@H](C)CCC/C(C)=C/CC[C@@]3(C)O[C@@H]3C[C@@H]12 | 11.5 | 4.35 | – | 27.3 | – | 3.02 | 10.5 | 3.52 | 22.3 | 11.7 | 13.3 | 28.4 | 20.7 | 20.9 | 3.23 | 3.18 | 24.1 |
| CN(C)C12C=CC=CC3=C(c4ccccc4)C(c4ccccc4)=C(c4ccccc4)C31c1ccccc1C2 (stereo unspecified) | > 100 | > 100 | > 100 | > 100 | > 100 | > 100 | > 100 | – | > 100 | > 100 | > 100 | > 100 | > 100 | – | – | > 100 | > 100 |
| C=C1[C@@H](OC(C)=O)/C=C/C2C3C(=O)[C@@](C)(OC(C)=O)[C@H]([C@H](OC(C)=O)[C@]4(O)[C@@H](C)C(=O)O[C@H]4[C@H]1Cl)[C@@]23C (stereo partly specified) | > 100 | > 100 | > 100 | > 100 | > 100 | > 100 | – | > 100 | > 100 | > 100 | > 100 | > 100 | > 100 | > 100 | > 100 | > 100 | > 100 |
| COC(=O)c1ccccc1/C=C1\Cc2ccc3c(c2C1=O)CCC3 | > 100 | > 100 | > 100 | > 100 | > 100 | > 100 | > 100 | > 100 | > 100 | > 100 | > 100 | > 100 | > 100 | – | > 100 | > 100 | – |

Source: PubChem BioAssay (NCI)
